Results published in patent EP0447324B1, “2,4-Pyrimidinedione derivatives and medicines containing them” (SANOFI, priority 1990, dated 1991).
“Also recorded” adds a separate entry of the source.

Test system: peroxydation des lipides membranaires (suspensions de mitochondries)
Assay: Inhibition of membrane lipid peroxidation in beef heart mitochondria (malonaldehyde formation, dihydroxyfumaric acid/iron)
Assay type: biochemical, boeuf
Description: L'inhibition de la peroxydation lipidique due aux radicaux libres oxygénés, peroxydation particulièrement importante en présence de fer, a été déterminée, in vitro, par la mesure de la quantité d'aldéhyde malonique formée dans des suspensions de mitochondries, mises en présence d'un générateur d'ions superoxydes comme l'acide dihydroxyfumarique.
L'activité inhibitrice de la peroxydation des lipides membranaires des composés a été déterminée comme suit :
a) préparation des mitochondries
On prélève un coeur de boeuf immédiatement après l'abattage de l'animal et le refroidit à 4°C, température à laquelle toutes les opérations suivantes seront effectuées. Le coeur est lavé avec une solution aqueuse tampon à pH 7,4 (TRIS,HCl 10 mM, EDTA 2 mM, KCl 20 mM, saccharose 250 mM) puis les tissus conjonctifs et les graisses sont éliminés. Le muscle est alors haché et le hachis est mis en suspension dans une solution aqueuse tampon à pH 7,4 (TRIS,HCl 10 mM, saccharose 250 mM, EDTA 1 mM) à raison de 700 g de muscle pour 3 litres. Le pH de la suspension est réajusté à 7,4, régulièrement, avant d'isoler le hachis par filtration sur une gaze. […]
Une gamme étalon de malonaldéhyde bis-(diéthylacétal) dilué dans une solution aqueuse de HCl 0,1 N permet de calculer à quelle concentration d'aldéhyde correspond chaque intensité de la fluorescence i. […]

O=c1[nH]c(=O)c2[nH]c(=O)[nH]c2[nH]1 [acide urique]
inhibition de la peroxydation lipidique (result in words): n'inhibe pas; also recorded: inactif | inhibition de la formation de malonaldéhyde (concentration inférieure à 100 »M): n'inhibe pas
